What was measured:
[1] = target: T1, S-adenosylmethionine synthase isoform type-1 (Rattus norvegicus, UniProt P13444); assay: Compound was evaluated for its inhibitory activity against recombinant S-adenosyl L-Methionine synthetase (alpha-isoform) in rat liver
[2] = target: T1, S-adenosylmethionine synthase isoform type-1; assay: Compound was evaluated for its inhibitory activity against recombinant S-adenosyl L-Methionine synthetase (alpha-isoform) in rat liver; No significant activity

T1 sequence (P13444 whole entry, canonical isoform): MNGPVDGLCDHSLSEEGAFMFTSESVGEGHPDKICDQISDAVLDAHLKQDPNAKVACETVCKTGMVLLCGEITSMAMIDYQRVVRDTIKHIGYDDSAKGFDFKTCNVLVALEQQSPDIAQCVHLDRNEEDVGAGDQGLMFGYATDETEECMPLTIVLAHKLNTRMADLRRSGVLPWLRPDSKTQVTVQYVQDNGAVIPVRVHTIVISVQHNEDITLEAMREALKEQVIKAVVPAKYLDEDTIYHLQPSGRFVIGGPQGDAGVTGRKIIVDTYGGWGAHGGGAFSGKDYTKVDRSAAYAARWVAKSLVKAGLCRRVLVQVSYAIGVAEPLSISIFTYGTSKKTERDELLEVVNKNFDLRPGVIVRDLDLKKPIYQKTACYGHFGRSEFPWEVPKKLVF

Row | SMILES | Ki [1] [µM] | Ki [2]
1 | CO/C=C\[C@H](N)C(=O)O | 56 | –
2 | NC1(C(=O)O)CCOCC1 | 1000 | –
3 | N[C@]1(C(=O)O)CCSC1 | 1040 | Not Active
4 | N[C@]1(C(=O)O)CCOC1 | 750 | Not Active
5 | NC1(C(=O)O)CCSCC1 | 3000 | –
6 | NC1(C(=O)O)CCCC1 [CYCLOLEUCINE] | 516 | –

From ChEMBL document CHEMBL1130856, “A new series of cyclic amino acids as inhibitors of S-adenosyl L-methionine synthetase” (Bioorg Med Chem Lett, 1998)
